Results taken from patent publication US11813306B2, “Cyclic tetramer compounds as proprotein convertase subtilisin/kexin type 9 (PCSK9) inhibitors for the treatment of metabolic disorders” (NOVARTIS AG, priority 2018, dated 2023).

Target: human PCSK9 (Homo sapiens, UniProt Q8NBP7)
Assay: PCSK9 ligand binding assay (TR-FRET): interference with binding of human PCSK9 to human LDLR
Settings: for IC50: Human PCSK9 Alexa Fluor 647 / Human LDLR extracellular domain-Europium Kryptate; for Max % inhibition: efficacy (Amax), 100% = 1 uM unlabeled human PCSK9, 0% = DMSO
How it was run: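 Read-out was TR-FRET ratio (665 nm over 615 nm, 330 nm excitation) between Alexa Fluor 647-human PCSK9 (16 nM added) and Europium Kryptate-human LDLR ectodomain (4 nM added). Compound and PCSK9 were mixed 30 min before LDLR, then incubated 2 h. Inhibition was normalised to DMSO and unlabelled-PCSK9 controls, giving IC50 and Amax.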

Sequence of human PCSK9 (Q8NBP7 153-692): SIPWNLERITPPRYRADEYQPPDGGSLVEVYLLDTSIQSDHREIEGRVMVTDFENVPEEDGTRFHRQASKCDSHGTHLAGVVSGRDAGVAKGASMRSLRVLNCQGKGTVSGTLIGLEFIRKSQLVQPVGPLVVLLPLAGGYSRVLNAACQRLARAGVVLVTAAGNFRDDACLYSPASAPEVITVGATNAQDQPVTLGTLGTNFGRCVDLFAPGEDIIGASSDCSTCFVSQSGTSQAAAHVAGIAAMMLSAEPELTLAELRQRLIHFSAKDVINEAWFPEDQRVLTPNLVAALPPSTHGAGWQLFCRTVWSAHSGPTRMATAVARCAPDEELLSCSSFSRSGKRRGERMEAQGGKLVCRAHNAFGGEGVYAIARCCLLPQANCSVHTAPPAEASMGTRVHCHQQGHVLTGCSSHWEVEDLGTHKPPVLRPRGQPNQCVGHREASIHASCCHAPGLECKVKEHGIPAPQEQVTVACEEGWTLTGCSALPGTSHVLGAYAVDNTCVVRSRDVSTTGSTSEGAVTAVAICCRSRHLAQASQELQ
Sequence of human PCSK9 (Q8NBP7 31-152 partner limits assumed): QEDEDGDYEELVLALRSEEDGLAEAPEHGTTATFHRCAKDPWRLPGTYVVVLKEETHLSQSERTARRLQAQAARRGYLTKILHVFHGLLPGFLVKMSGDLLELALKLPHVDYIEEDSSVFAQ

In the case of `C[C@H]1C(=O)N[C@@H](CO)C(=O)N[C@@]2(Cc3ccc(Cl)cc3)CCCN(C2)C(=O)[C@H]([C@@H]2CCc3ccccc32)CC(=O)N1Cc1c(F)cc(Cl)cc1Oc1ccc(-c2cnc(CN(C)C)n2C)cc1` [Compound 49, (3S, 7S, 10S, 13R)-6-(4-chloro-2-(4-(2-((dimethylamino)methyl)-1-methyl-1H-imidazol-5-yl)phenoxy)-6-fluorobenzyl)-13-(4-chlorobenzyl)-3-((S)-2,3-dihydro-1H-inden-1-yl)-10-(hydroxymethyl)-7-methyl-1,6,9,12-tetraazabicyclo[11.3.1]heptadecane-2,5,8,11-tetraone], the IC50 is reported as 0.631 nM and the Max % inhibition is reported as 102.2%.

`COC[C@@H]1NC(=O)[C@H](C)N(Cc2ccc(Cl)cc2Oc2ccc(-c3cnc(CN4CCCC4)n3C)cc2)C(=O)C[C@@H](Cc2ccccc2)C(=O)N(CCCN(C)C)C[C@@H](Cc2ccc(Cl)cc2)N(C)C1=O.Cl` [Compound 116, (2S, 5S, 8R, 12R)-12-benzyl-1-(4-chloro-2-(4-(1-methyl-2-(pyrrolidin-1-ylmethyl)-1H-imidazol-5-yl)phenoxy)benzyl)-8-(4-chlorobenzyl)-10-(3-(dimethylamino)propyl)-5-(methoxymethyl)-2,7-dimethyl-1,4,7,10-tetraazacyclotetradecane-3,6,11,14-tetraone] showed an IC50 of 19.7 nM and a Max % inhibition of 104.9%.

`C[C@H]1C(=O)N[C@@H](CO)C(=O)N[C@@]2(Cc3ccc(Cl)cc3)CCCN(C2)C(=O)[C@H]([C@H]2CCc3ccccc32)CC(=O)N1Cc1ccc(Cl)cc1Oc1ccc(-c2cnc(CN3CCCC3)n2C)cc1.Cl` [Compound 68, (3S,7S,10S,13R)-6-(4-chloro-2-(4-(1-methyl-2-(pyrrolidin-1-ylmethyl)-1H-imidazol-5-yl)phenoxy)benzyl)-13-(4-chlorobenzyl)-3-((R)-2,3-dihydro-1H-inden-1-yl)-10-(hydroxymethyl)-7-methyl-1,6,9,12-tetraazabicyclo[11.3.1]heptadecane-2,5,8,11-tetraone hydrochloride] gave an IC50 of 1.62 nM and a Max % inhibition of 95.0%.

With `C[C@H](O)[C@@H]1NC(=O)[C@H](C)N(Cc2ccc(Cl)cc2Oc2ccc(-c3cnc(CN(C)C)n3C)cc2)C(=O)C[C@@H](Cc2ccccc2)C(=O)N2CCC[C@@](Cc3ccc(Cl)cc3)(C2)NC1=O` [Compound 109, (3R, 7S, 10S, 13R)-3-benzyl-6-(4-chloro-2-(4-(2-((dimethylamino)methyl)-1-methyl-1H-imidazol-5-yl)phenoxy)benzyl)-13-(4-chlorobenzyl)-10-((S)-1-hydroxyethyl)-7-methyl-1,6,9,12-tetraazabicyclo[11.3.1]heptadecane-2,5,8,11-tetraone] the IC50 was 11.1 nM and the Max % inhibition was 82.0%.

With `COC[C@@H]1NC(=O)[C@H](C)N(Cc2ccc(Cl)cc2Oc2ccc(-c3cnc(CN4CC[C@H](O)C4)n3C)cc2)C(=O)C[C@@H](Cc2ccccc2)C(=O)N2CCC[C@@](Cc3ccc(Cl)cc3)(C2)NC1=O.Cl` [Compound 59, (3R, 7S, 10S, 13R)-3-benzyl-6-(4-chloro-2-(4-(2-(((S)-3-hydroxypyrrolidin-1-yl)methyl)-1-methyl-1H-imidazol-5-yl)phenoxy)benzyl)-13-(4-chlorobenzyl)-10-(methoxymethyl)-7-methyl-1,6,9,12-tetraazabicyclo+11.3.1+heptadecane-2,5,8,11-tetraone] the IC50 was 0.572 nM and the Max % inhibition was 103.6%.

`COC[C@@H]1NC(=O)[C@H](C)N(Cc2ccc(Cl)cc2Oc2ccc(-c3cnc(CN(C)C)n3C)nc2)C(=O)C[C@@H](CC(F)(F)F)C(=O)N2CCC[C@@](Cc3ccc(Cl)cc3)(C2)N(C)C1=O` [Compound 12, (3S, 7S, 10S, 13R)-6-(4-chloro-2-((6-(2-((dimethylamino)methyl)-1-methyl-1H-imidazol-5-yl)pyridin-3-yl)oxy)benzyl)-13-(4-chlorobenzyl)-10-(methoxymethyl)-7,12-dimethyl-3-(2,2,2-trifluoroethyl)-1,6,9,12-tetraazabicyclo[11.3.1]heptadecane-2,5,8,11-tetraone] showed an IC50 of 0.152 nM and a Max % inhibition of 112.8%.

`CC(=O)C[C@@H]1NC(=O)[C@H](C)N(Cc2ccc(Cl)cc2Oc2ccc(-c3cnc(CN4CCCC4)n3C)cc2)C(=O)C[C@@H](Cc2ccccc2)C(=O)N(C)C[C@@H](Cc2ccc(Cl)cc2)N(C)C1=O.Cl` [Compound 129, (2S,5S,8R,12R)-12-benzyl-1-(4-chloro-2-(4-(1-methyl-2-(pyrrolidin-1-ylmethyl)-1H-imidazol-5-yl)phenoxy)benzyl)-8-(4-chlorobenzyl)-2,7,10-trimethyl-5-(2-oxopropyl)-1,4,7,10-tetraaza-cyclotetradecane-3,6,11,14-tetraone hydrochloride] showed an IC50 of 205 nM and a Max % inhibition of 87.3%.

`C[C@H]1C(=O)N[C@@H](CO)C(=O)N[C@@]2(Cc3ccc(Cl)cc3)CCCN(C2)C(=O)[C@H](CC2CC2)CC(=O)N1Cc1c(F)cc(Cl)cc1Oc1ccc(-c2cnc(CNC(C)(C)C)n2C)cc1` [Compound 154, (3R, 7S, 10S, 13R)-6-(2-(4-(2-((tert-butylamino)methyl)-1-methyl-1H-imidazol-5-yl)phenoxy)-4-chloro-6-fluorobenzyl)-13-(4-chlorobenzyl)-3-(cyclopropylmethyl)-10-(hydroxymethyl)-7-methyl-1,6,9,12-tetraazabicyclo[11.3.1]heptadecane-2,5,8,11-tetraone] showed an IC50 of 0.71 nM and a Max % inhibition of 104.6%.

Work on `C[C@H]1C(=O)N[C@@H](CO)C(=O)N(C)[C@@]2(Cc3ccc(Cl)cc3)CCCN(C2)C(=O)[C@@H](CC(F)(F)F)CC(=O)N1Cc1c(F)cc(Cl)cc1Oc1ccc(-c2cnc(CN(C)C)n2C)cc1` [Compound 151, (3R, 7S, 10S, 13R)-6-(4-chloro-2-(4-(2-((dimethylamino)methyl)-1-methyl-1H-imidazol-5-yl)phenoxy)-6-fluorobenzyl)-13-(4-chlorobenzyl)-10-(hydroxymethyl)-7,12-dimethyl-3-(2,2,2-trifluoroethyl)-1,6,9,12-tetraazabicyclo[11.3.1]heptadecane-2,5,8,11-tetraone] yielded an IC50 of 5.69 nM and a Max % inhibition of 107.5%.

`COC[C@@H]1NC(=O)[C@H](C)N(Cc2ccc(Cl)cc2Oc2ccc(-c3cnc(CN(C)C)n3C)cc2)C(=O)C[C@@H](Cc2cccc(C)n2)C(=O)N2CCC[C@@](Cc3ccc(Cl)cc3)(C2)N(C)C1=O` [Compound 38, (3R, 7S, 10S, 13R)-6-(4-chloro-2-(4-(2-((dimethylamino)methyl)-1-methyl-1H-imidazol-5-yl)phenoxy)benzyl)-13-(4-chlorobenzyl)-10-(methoxymethyl)-7,12-dimethyl-3-((6-methylpyridin-2-yl)methyl)-1,6,9,12-tetraazabicyclo[11.3.1]heptadecane-2,5,8,11-tetraone] was tested, and the IC50 was 0.715 nM and the Max % inhibition was 106.4%.

`C[C@H]1C(=O)N[C@@H](CO)C(=O)N[C@@]2(Cc3ccc(Cl)cc3)CCCN(C2)C(=O)[C@H](CC(F)F)NC(=O)N1Cc1ccc(Cl)cc1Oc1ccc(-c2cnc(CN(C)C)n2C)cc1.Cl` [Compound 58, (3S, 7S, 10S, 13R)-6-(4-chloro-2-(4-(2-((dimethylamino)methyl)-1-methyl-1H-imidazol-5-yl)phenoxy)benzyl)-13-(4-chlorobenzyl)-3-(2,2-difluoroethyl)-10-(hydroxymethyl)-7-methyl-1,4,6,9,12-pentaazabicyclo[11.3.1]heptadecane-2,5,8,11-tetraone] showed an IC50 of 0.367 nM and a Max % inhibition of 106.6%.
